Assay results from PubChem BioAssay AID330 (DTP/NCI, 2004).
“And” between values parts separate entries of the source, which are not always exact repeats. Equal entries are not always repeated. Toxic doses and inconclusive results are not listed.

Test system: P388 leukemia ip, CD2F1 mice, survival T/C
Assay: NCI In Vivo Anticancer Drug Screen. Data for tumor model P388 Leukemia (intraperitoneal) in CD2F1 (CDF1) mice
Conditions: endpoint: median survival time, higher = longer survival
Method in brief: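 Mice carrying the transplanted tumor received test compound or vehicle. Survival was recorded in each group, and the value is the treated-group measurement divided by that of the vehicle-treated control group.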

[1] = dose: 50.0 mg/kg/injection, schedule: Q01DX005 (ip), vehicle: saline with Tween-80
[2] = dose: 100.0 mg/kg/injection, schedule: Q01DX005 (ip), vehicle: saline with Tween-80
[3] = dose: 200.0 mg/kg/injection, schedule: Q01DX005 (ip), vehicle: saline with Tween-80
[4] = dose: 50.0 mg/kg/injection, schedule: Q01DX009 (ip), vehicle: saline with Tween-80
[5] = dose: 100.0 mg/kg/injection, schedule: Q01DX009 (ip), vehicle: saline with Tween-80
[6] = dose: 50.0 mg/kg/injection, schedule: Q01DX005 (ip), vehicle: distilled water + Tween-80
[7] = dose: 100.0 mg/kg/injection, schedule: Q01DX005 (ip), vehicle: distilled water + Tween-80
[8] = dose: 6.25 mg/kg/injection, schedule: Q01DX009 (ip), vehicle: other
[9] = dose: 12.5 mg/kg/injection, schedule: Q01DX009 (ip), vehicle: other
[10] = dose: 25.0 mg/kg/injection, schedule: Q01DX009 (ip), vehicle: other
[11] = dose: 50.0 mg/kg/injection, schedule: Q01DX009 (ip), vehicle: other
[12] = dose: 50.0 mg/kg/injection, schedule: Q01DX005 (ip), vehicle: saline
[13] = dose: 100.0 mg/kg/injection, schedule: Q04DX002 (ip), vehicle: saline with Tween-80
[14] = dose: 200.0 mg/kg/injection, schedule: Q04DX002 (ip), vehicle: saline with Tween-80
[15] = dose: 400.0 mg/kg/injection, schedule: Q04DX002 (ip), vehicle: saline with Tween-80
[16] = dose: 12.5 mg/kg/injection, schedule: Q01DX005 (ip), vehicle: saline
[17] = dose: 25.0 mg/kg/injection, schedule: Q01DX005 (ip), vehicle: saline
[18] = dose: 60.0 mg/kg/injection, schedule: Q01DX005 (ip), vehicle: saline with Tween-80
[19] = dose: 120.0 mg/kg/injection, schedule: Q01DX005 (ip), vehicle: saline with Tween-80
[20] = dose: 240.0 mg/kg/injection, schedule: Q01DX005 (ip), vehicle: saline with Tween-80
[21] = dose: 50.0 mg/kg/injection, schedule: Q01DX009 (ip), vehicle: Klucel (hydroxypropylcellulose) (HPC)
[22] = dose: 100.0 mg/kg/injection, schedule: Q01DX009 (ip), vehicle: Klucel (hydroxypropylcellulose) (HPC)
[23] = dose: 50.0 mg/kg/injection, schedule: Q01DX005 (ip), vehicle: Klucel (hydroxypropylcellulose) (HPC)
[24] = dose: 100.0 mg/kg/injection, schedule: Q01DX005 (ip), vehicle: Klucel (hydroxypropylcellulose) (HPC)
[25] = dose: 200.0 mg/kg/injection, schedule: Q01DX005 (ip), vehicle: Klucel (hydroxypropylcellulose) (HPC)

Clc1c(Br)c(-c2ccccc2)nc2ccccc12
T/C [1]: 108 % of control
T/C [2]: 110 % of control
T/C [3]: 108 % of control

CC(=O)c1ccc2c(=O)n3c4ccccc4nc3c3cccc1c23
T/C [4]: 118 % of control
T/C [5]: 104 % of control

N#CC1=CN(Cc2ccc3c(c2)OCO3)C=CC1
T/C (dose: 50.0 mg/kg/injection, schedule: Q01DX005 (ip), vehicle: Klucel + Tween-80): 100 % of control
T/C (dose: 100.0 mg/kg/injection, schedule: Q01DX005 (ip), vehicle: Klucel + Tween-80): 98 % of control
T/C (dose: 200.0 mg/kg/injection, schedule: Q01DX005 (ip), vehicle: Klucel + Tween-80): 92 % of control

CC(C)NC(=O)OCc1c(COC(=O)NC(C)C)c(S(=O)c2ccccc2)n2c1CCC2 (stereo unspecified)
T/C (dose: 25.0 mg/kg/injection, schedule: Q01DX005 (ip), vehicle: distilled water + Tween-80): 113 % of control
T/C [6]: 110 % of control
T/C [7]: 113 % of control

O=C1C(Br)=Cc2cccc3cccc1c23
T/C (dose: 25.0 mg/kg/injection, schedule: Q01DX009 (ip), vehicle: saline with Tween-80): 100 % of control
T/C [4]: 100 % of control
T/C [5]: 100 % of control

C=C(CCCCC)C(=O)/C=C/c1ccc(Cl)c(Cl)c1
T/C [8]: 97 % of control
T/C [9]: 107 % of control
T/C [10]: 108 % of control
T/C [11]: 109 % of control

COC(=O)c1nc(Cl)[nH]c1CC#N
T/C [12]: 103 % of control
T/C (dose: 100.0 mg/kg/injection, schedule: Q01DX005 (ip), vehicle: saline): 112 % of control
T/C (dose: 200.0 mg/kg/injection, schedule: Q01DX005 (ip), vehicle: saline): 105 % of control

COC(=O)C(C)NC(=O)C(C)NC(=O)c1ccc(OC)cc1 (stereo unspecified)
T/C [13]: 105 % of control
T/C [14]: 99 % of control
T/C [15]: 91 % of control

CCC(=O)c1cc2ccccc2c2ccccc12
T/C [16]: 96 % of control
T/C [17]: 100 % of control
T/C [1]: 103 % of control
T/C [12]: 100 % of control

O=[N+]([O-])c1ccc(COc2ccccc2)cc1
T/C (dose: 100.0 mg/kg/injection, schedule: Q01DX001 (ip), vehicle: saline): 104 % of control
T/C (dose: 200.0 mg/kg/injection, schedule: Q01DX001 (ip), vehicle: saline): 113 % of control
T/C (dose: 400.0 mg/kg/injection, schedule: Q01DX001 (ip), vehicle: saline): 124 % of control

COc1cc2c(cc1C(C)c1ccc(OCC(=O)O)cc1)OCO2 (stereo unspecified)
T/C [6]: 96 % of control
T/C [7]: 105 % of control
T/C (dose: 200.0 mg/kg/injection, schedule: Q01DX005 (ip), vehicle: distilled water + Tween-80): 100 % of control

Cc1c(-c2ccccc2)oc(=O)c(Cl)c1N(C)C
T/C [1]: 102 % of control
T/C [2]: 100 % of control
T/C [3]: 100 % of control

O=C1CC2COc3ccc(OCCN4CCCC4)cc3C2=NN1c1ccccc1 (stereo unspecified)
T/C [1]: 103 % of control
T/C [2]: 103 % of control

Nc1nnc(-c2ccc(Br)cc2)o1
T/C [18]: 106 % of control
T/C [19]: 109 % of control
T/C [20]: 114 % of control

Clc1ccc(NCNC2Nc3ccccc3N2)cc1Cl
T/C [18]: 94 % of control
T/C [19]: 93 % of control

O=C[C@@H](CO)O[C@H](C=O)c1c[nH]c(=O)[nH]c1=O
T/C (dose: 5.0 mg/kg/injection, schedule: Q01DX005 (ip), vehicle: saline): 118 % of control
T/C [16]: 155 % of control
T/C (dose: 12.5 mg/kg/injection, schedule: Q04DX003 (ip), vehicle: saline): 124 % of control
T/C [17]: 156 % of control and 158 % of control
T/C (dose: 40.0 mg/kg/injection, schedule: Q01DX005 (ip), vehicle: saline): 155 % of control
T/C [12]: 173 % of control and 190 % of control
T/C (dose: 80.0 mg/kg/injection, schedule: Q01DX005 (ip), vehicle: saline): 186 % of control and 245 % of control
T/C (dose: 100.0 mg/kg/injection, schedule: Q04DX003 (ip), vehicle: saline): 185 % of control

N#CCc1nc2ccccc2nc1Cl
T/C (dose: 50.0 mg/kg/injection, schedule: Q01DX009 (ip), vehicle: distilled water + Tween-80 + alcohol): 100 % of control
T/C (dose: 100.0 mg/kg/injection, schedule: Q01DX009 (ip), vehicle: distilled water + Tween-80 + alcohol): 94 % of control

CCCCC1C=CC2C(N1)N2C#N (stereo unspecified)
T/C (dose: 6.25 mg/kg/injection, schedule: Q01DX009 (ip), vehicle: saline): 102 % of control
T/C (dose: 12.5 mg/kg/injection, schedule: Q01DX009 (ip), vehicle: saline): 99 % of control
T/C (dose: 25.0 mg/kg/injection, schedule: Q01DX009 (ip), vehicle: saline): 102 % of control
T/C [5]: 86 % of control

CC(C)S(=O)(=O)c1s[nH]c(=O)c1-c1ccccc1
T/C [21]: 109 % of control
T/C [22]: 107 % of control
T/C (dose: 200.0 mg/kg/injection, schedule: Q01DX009 (ip), vehicle: Klucel (hydroxypropylcellulose) (HPC)): 101 % of control

Cc1cc(C)nc(NCCCNc2nc(C)cc(C)n2)n1
T/C [23]: 101 % of control
T/C [24]: 98 % of control
T/C [25]: 100 % of control

CC(=O)Nc1sccc1S(=O)(=O)c1ccsc1NC(C)=O
T/C [13]: 100 % of control
T/C [14]: 105 % of control
T/C [15]: 98 % of control

CC1(C)CCCC(C)(C2CCC3(C)C2C(O)CC2C4(C)CCC(O)C(C)(C)C4C(O)CC23C)O1 (stereo unspecified)
T/C (dose: 6.25 mg/kg/injection, schedule: Q01DX009 (ip), vehicle: Klucel (hydroxypropylcellulose) (HPC)): 101 % of control
T/C (dose: 12.5 mg/kg/injection, schedule: Q01DX009 (ip), vehicle: Klucel (hydroxypropylcellulose) (HPC)): 99 % of control
T/C (dose: 25.0 mg/kg/injection, schedule: Q01DX009 (ip), vehicle: Klucel (hydroxypropylcellulose) (HPC)): 96 % of control
T/C [21]: 92 % of control
T/C [22]: 92 % of control

N#Cc1nn(-c2ccccc2)sc1=N
T/C (dose: 3.13 mg/kg/injection, schedule: Q01DX009 (ip), vehicle: other): 104 % of control
T/C [8]: 110 % of control
T/C [9]: 100 % of control
T/C [10]: 94 % of control
T/C [11]: 88 % of control
T/C (dose: 100.0 mg/kg/injection, schedule: Q01DX009 (ip), vehicle: other): 88 % of control

CC12CC(c3ccoc3)OC(=O)C1CCC13COC(=O)C1=CCCC32 (stereo unspecified)
T/C (dose: 0.25 mg/kg/injection, schedule: Q01DX009 (ip), vehicle: Klucel (hydroxypropylcellulose) (HPC)): 96 % of control
T/C (dose: 0.5 mg/kg/injection, schedule: Q01DX009 (ip), vehicle: Klucel (hydroxypropylcellulose) (HPC)): 88 % of control
T/C (dose: 1.0 mg/kg/injection, schedule: Q01DX009 (ip), vehicle: Klucel (hydroxypropylcellulose) (HPC)): 90 % of control
T/C (dose: 2.0 mg/kg/injection, schedule: Q01DX009 (ip), vehicle: Klucel (hydroxypropylcellulose) (HPC)): 114 % of control

COc1ccc(COC(=O)Sc2nc(C)cc(C)n2)cc1
T/C [23]: 101 % of control
T/C [24]: 100 % of control
T/C [25]: 102 % of control

CCC(C)C(NC(=O)c1ccccc1)C(=O)O (stereo unspecified)
T/C [1]: 90 % of control
T/C [2]: 106 % of control
T/C [3]: 97 % of control

O=S(=O)(Nc1cccc(C(F)(F)F)c1)c1ccc(F)cc1
T/C [18]: 94 % of control
T/C [19]: 100 % of control
T/C [20]: 93 % of control

CCO/C=C/C=C1C(=O)N(C)C(=O)N(C)C1=O
T/C (dose: 25.0 mg/kg/injection, schedule: Q01DX009 (ip), vehicle: saline + Tween-80 + alcohol): 100 % of control and 108 % of control
T/C (dose: 50.0 mg/kg/injection, schedule: Q01DX009 (ip), vehicle: saline + Tween-80 + alcohol): 111 % of control and 118 % of control
T/C (dose: 100.0 mg/kg/injection, schedule: Q01DX009 (ip), vehicle: saline + Tween-80 + alcohol): 108 % of control and 117 % of control
T/C (dose: 200.0 mg/kg/injection, schedule: Q01DX009 (ip), vehicle: saline + Tween-80 + alcohol): 115 % of control and 119 % of control
T/C (dose: 400.0 mg/kg/injection, schedule: Q01DX009 (ip), vehicle: saline + Tween-80 + alcohol): 103 % of control
